For assay [1], the system named is myocardial function. The experiment in a line: Cardiac functional assessment following ischemia and reperfusion (pressure/volume conductance catheter, flow probe). In kind it is in vivo, rat.
Assay [2] concerns myocardial function. The experiment in a line: Cardiac function over the course of induced ischemia and reperfusion, percentage of baseline (FIGS. 5-7). In kind it is in vivo. The settings on record: p<0.05. The method, then: In order to determine overall effects of ethyl pyruvate on cardiac function, a number of parameters were evaluated over the course of induced ischemia, and reperfusion, as a function of time.

In the next assay the test system is ischemic myocardium. The assay can be described thus: Myocardial ATP levels (luciferin/luciferase bioluminescence) in acute in vivo ischemia-reperfusion model. The arrangement: species or system rat. The settings on record: n=5.
Assay [3] has as its system ischemic and nonischemic myocardium. The experiment in a line: Myocardial lipid peroxidation measurements after ischemia and reperfusion. It counts as in vivo, rat.
Assay [4] concerns left ventricular infarction. The experiment in a line: Planimetric determination of left ventricular infarction size (TTC/Evans blue). In kind it is in vivo, rat. The following applies: 30 minutes ischemia and 30 minutes reperfusion; n=15; mean ± SEM.
The mark [5] stands for this setting: after 30 min ischemia / 30 min reperfusion, n=15.
Setting [6] is: following ischemia and reperfusion, n=15, mean ± SEM, FIG. 8.
Setting [7] is: 30 min ischemia / 30 min reperfusion, n=6, FIG. 2, mean ± SEM.

Molecules are shown by their SMILES.

As to `CCOC(=O)C(C)=O` [ethyl pyruvate], the “Myocardial function (end systolic pressure volume relationships) versus control animals” value in the assay with myocardial function [1] (FIG. 8) is recorded as “significantly improved myocardial function”. In the assay with myocardial function [1] (setting [5]), the Cardiac output turned out to be 26.7 ± 0.9 mL/min, the Ejection fraction is on record as 41.9 ± 3.8%, the Heart rate came to 183 ± 9.5 bpm and the “Maximum dP/dt” value is 3518 + 243 mm Hg/s. In addition, in the assay on myocardial function [1] (setting [5]), the Maximum pressure is 86.6 ± 2.9 mm Hg and the “Minimum dP/dt” value was 2841 + 329 mm Hg/s. In the assay on myocardial function [1] (setting [6]), the ESPVR slope is reported as 1.09±0.22 and the “ESPVR x-axis intercept (x-int)” value is 4.1±19.9. The “Composite ESPVR” value in the assay with myocardial function [1] (regression composite, n=15, FIG. 8) is 1.08 (ESV-4.0B). The “dP/dtmax (contractility) as percentage of baseline, versus controls” value in the assay on myocardial function [2] (after 8 minutes of ischemia and throughout reperfusion, FIG. 6) is recorded as “significantly greater”. Further, the “Maximum left ventricular (LV) pressure as percentage of baseline, versus controls” value in the assay on myocardial function [2] (throughout ischemia and reperfusion, FIG. 5) was “significantly greater”. Further, the “Cardiac output as percentage of baseline, versus controls” value in the assay with myocardial function [2] (throughout ischemia and reperfusion, FIG. 7) is “significantly greater”. Moreover, the “ATP level in ischemic region of heart” value with ischemic myocardium (10 minutes after initiation of ischemia, 1.5 mL/kg iv bolus of 28 mmol/L ethyl pyruvate in Ringer's, mean ± SEM) is 87.6 ± 29.2 nmol/g. Further, the “ATP levels versus controls” value in the assay on ischemic myocardium (ischemic myocardium 10 minutes after initiation of ischemia, FIG. 1) is given as “Significantly higher levels of ATP”. For the same molecule, in assay [3] (setting [7]), the “Lipid peroxide level, ischemic myocardium” value was 63.8 ± 3.3 nmol/g and the “Lipid peroxide level, nonischemic myocardium” value is 42.3 ± 4.8 nmol/g. Moreover, the “Lipid peroxide level, ischemic myocardium” value in assay [3] (n=5, FIG. 3, mean ± SEM) was determined as 70.4 ± 2.6 nmol/g. Besides, in assay [3] (n=6, FIG. 2), the “Lipid peroxidation in ischemic myocardium versus control hearts” value was “decreased the level of lipid peroxidation” and the “Lipid peroxidation in remote nonischemic myocardium versus control” value was “equivalent”. For the same molecule, in assay [4], the “Left ventricular area at risk infarcted (infarction area/area at risk)” value is on record as 25.3%±1.5.

The values are drawn from patent US20070276037A1, “Cytoprotective Effects of Ethyl Pyruvate” (priority 2003, published 2007).
